# Reference: patent US8236808B2, “Pyrazine derivatives as ENAC blockers” (Novartis AG, priority 2008, dated 2012)
# Structures can show the parent of a compound that is named as a salt.
# Molecular target: T1, epithelial sodium channel (ENaC) (Homo sapiens, UniProt P37088+P51168+P51170)
# T1 construct: host or cells: primary human bronchial epithelial cells (HBECs), differentiated at the air-liquid interface
# T1 sequence (P37088 1-669): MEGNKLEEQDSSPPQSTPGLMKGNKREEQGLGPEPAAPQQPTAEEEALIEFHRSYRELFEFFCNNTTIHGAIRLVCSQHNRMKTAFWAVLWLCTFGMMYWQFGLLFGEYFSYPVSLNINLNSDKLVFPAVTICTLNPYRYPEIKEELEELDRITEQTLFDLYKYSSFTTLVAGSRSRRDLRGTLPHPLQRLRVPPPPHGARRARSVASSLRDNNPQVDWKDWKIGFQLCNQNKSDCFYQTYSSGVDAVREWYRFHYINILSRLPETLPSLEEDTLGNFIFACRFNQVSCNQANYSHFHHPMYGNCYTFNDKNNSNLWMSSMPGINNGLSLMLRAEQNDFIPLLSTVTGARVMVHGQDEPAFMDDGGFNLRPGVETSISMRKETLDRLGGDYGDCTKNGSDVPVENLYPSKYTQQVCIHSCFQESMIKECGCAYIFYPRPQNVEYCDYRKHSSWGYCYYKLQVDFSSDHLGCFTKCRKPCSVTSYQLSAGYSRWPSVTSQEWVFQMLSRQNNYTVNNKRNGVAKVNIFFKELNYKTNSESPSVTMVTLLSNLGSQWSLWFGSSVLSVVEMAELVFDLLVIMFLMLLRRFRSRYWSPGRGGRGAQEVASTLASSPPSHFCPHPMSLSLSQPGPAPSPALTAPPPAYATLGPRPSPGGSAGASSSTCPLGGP
# T1 sequence (P51168 1-640): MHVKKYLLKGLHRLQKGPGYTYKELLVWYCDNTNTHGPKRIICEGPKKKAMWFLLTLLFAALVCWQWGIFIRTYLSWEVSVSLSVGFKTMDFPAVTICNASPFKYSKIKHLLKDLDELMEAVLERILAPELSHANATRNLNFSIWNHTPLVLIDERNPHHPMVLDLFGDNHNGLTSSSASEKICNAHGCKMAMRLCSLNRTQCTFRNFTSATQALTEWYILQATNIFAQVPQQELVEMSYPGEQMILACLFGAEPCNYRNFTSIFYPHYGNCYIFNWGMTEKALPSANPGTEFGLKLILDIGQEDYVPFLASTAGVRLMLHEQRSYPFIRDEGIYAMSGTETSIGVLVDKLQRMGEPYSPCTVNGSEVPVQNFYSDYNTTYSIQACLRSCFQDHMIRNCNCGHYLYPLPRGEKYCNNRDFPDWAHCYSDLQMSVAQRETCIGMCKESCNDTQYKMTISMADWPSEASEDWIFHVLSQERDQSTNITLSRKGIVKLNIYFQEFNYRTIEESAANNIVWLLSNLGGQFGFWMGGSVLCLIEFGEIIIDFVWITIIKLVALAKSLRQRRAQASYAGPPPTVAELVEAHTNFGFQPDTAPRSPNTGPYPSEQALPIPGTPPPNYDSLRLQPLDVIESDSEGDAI
# T1 sequence (P51170 1-649): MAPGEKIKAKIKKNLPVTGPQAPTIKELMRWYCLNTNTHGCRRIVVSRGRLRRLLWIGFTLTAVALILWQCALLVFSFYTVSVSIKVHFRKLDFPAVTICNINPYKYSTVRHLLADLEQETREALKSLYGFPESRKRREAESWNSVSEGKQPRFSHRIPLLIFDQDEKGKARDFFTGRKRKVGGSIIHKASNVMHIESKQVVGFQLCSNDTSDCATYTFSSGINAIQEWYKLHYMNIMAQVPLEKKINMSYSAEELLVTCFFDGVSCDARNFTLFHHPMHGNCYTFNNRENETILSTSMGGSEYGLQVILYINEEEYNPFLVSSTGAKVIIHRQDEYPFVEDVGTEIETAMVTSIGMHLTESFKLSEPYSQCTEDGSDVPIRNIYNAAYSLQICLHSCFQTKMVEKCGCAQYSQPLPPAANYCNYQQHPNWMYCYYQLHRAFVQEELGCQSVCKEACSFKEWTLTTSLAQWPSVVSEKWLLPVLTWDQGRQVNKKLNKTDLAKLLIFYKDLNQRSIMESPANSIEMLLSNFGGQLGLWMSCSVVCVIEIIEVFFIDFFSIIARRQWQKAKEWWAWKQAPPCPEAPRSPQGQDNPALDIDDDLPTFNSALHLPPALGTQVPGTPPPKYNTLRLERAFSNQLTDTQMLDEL
# Assay: Short circuit current (ISC) measurements in human bronchial epithelial cells, inhibition of amiloride-sensitive ISC
# Format: cell-based
# Conditions: inhibition of the amiloride-sensitive ISC; HBECs cultured at air-liquid interface, Ussing chamber, compound added to apical chamber
# Method: Compounds of formula (I), hereinafter referred to alternatively as “agents of the invention”, are useful as pharmaceuticals. In particular, the compounds have good ENaC blocker activity and may be tested in the following assays.
# Human Bronchial Epithelial cells (HBECs) (Cambrex) were cultured under air-liquid interface conditions to provide a well differentiated mucociliary phenotype.
# HBECs were cultured using a modification of the method described by Gray and colleagues (Gray et al., 1996). Cells were seeded in plastic T-162 flasks and were grown in bronchial epithelial cell growth medium (BEGM; Cambrex) supplemented with bovine pituitary extract (52 μg/mL), hydrocortisone (0.5 μg/mL), human recombinant epidermal growth factor (0.5 ng/mL), epinephrine (0.5 μg/mL), transferrin (10 μg/mL), insulin (5 μg/mL), retinoic acid (0.1 μg/mL), triiodothyronine ([…]), gentamycin (50 μg/mL) and amphotericin B (50 ng/mL). Medium was changed every 48 hours until cells were 90% confluent. Cells were then passaged and seeded (8.25×10^5 cells/insert) on polycarbonate Snapwell inserts (Costar) in differentiation media containing 50% DMEM in BEGM with the same supplements as above but without triiodothyronine and a final retinoic acid concentration of 50 nM (all-trans retinoic acid). Cells were maintained submerged for the first 7 days in culture, after which time they were exposed to an apical air interface for the remainder of the culture period. At this time, media was changed to DMEM:F12 media containing 2% v/v Ultroser G for the remainder of culture. Amphotericin B was removed from all media 3 feeds prior to use in the Ussing Chambers. Cells were used between days 7 and 21 after establishment of the apical-air interface. At all stages of culture, cells were maintained at 37° C. in 5% CO2 in an air incubator.
# Snapwell inserts were mounted in Vertical Diffusion Chambers (Costar) and were bathed with continuously gassed Ringer solution (5% CO2 in O2; pH 7.4) maintained at 37° C. containing (in mM): 120 NaCl, 25 NaHCO3, 3.3 KH2PO4, 0.8 K2HPO4, 1.2 CaCl2, 1.2 MgCl2, and 10 glucose. The solution osmolarity was between 280 and 300 mOsmol/kg H2O for all physiological salt solutions used. Cells were voltage clamped to 0 mV (model EVC4000; WPI). RT was measured by applying a 1- or 2-mV pulse at 30-s intervals and calculating RT by Ohm's law. Data were recorded using a PowerLab workstation (ADInstruments).
# Test compounds were prepared as a 10 mM stock solution in DMSO (95%). Serial 3-fold dilutions were freshly prepared in an appropriate vehicle (distilled H2O or Ringers solution). The initial concentration was added to the apical chamber as a 1000× concentrate in 5 μL, resulting in a final 1× concentration the 5 mL volume of the Ussing chamber. Subsequent additions of compound were added in a 3.3 μL volume of the 1000× serially diluted stock solution. At the completion of the concentration-response experiment, amiloride (10 μM) was added into the apical chamber to enable the total amiloride-sensitive current to be measured. An amiloride control IC50 was established at the start of each experiment.
# Results are expressed as the mean % inhibition of the amiloride-sensitive ISC. Concentration-response curves were plotted and IC50 values generated using GraphPad Prism 3.02. Cell inserts were typically run in duplicate and the IC50 calculated on the mean % inhibition data.
row,SMILES,IC50 [nM]
1,"COc1ccc(CCC[N+](CCCc2ccc(OC)cc2)(CCNC(=O)c2nc(Cl)c(N)nc2N)CC(N)=O)cc1 [Example 22, Carbamoylmethyl-{2-[(3,5-diamino-6-chloro-pyrazine-2-carbonyl)-amino]-ethyl}-bis-[3-(4-methoxy-phenyl)-propyl]-ammonium trifluoroacetate]",51
2,"COc1ccc(CCC[N+](CCCc2ccc(OC)cc2)(CCNC(=O)c2nc(Cl)c(N)nc2N)Cc2ccccc2)cc1 [Example 23, Benzyl-{2-[(3,5-diamino-6-chloro-pyrazine-2-carbonyl)-amino]-ethyl}-bis-[3-(4-methoxy-phenyl)-propyl]-ammonium trifluoroacetate]",34
3,"CCOc1ccc(NC(=O)NCCCC[N+](C)(CCCc2ccc(OC)cc2)CCNC(=O)c2nc(Cl)c(N)nc2N)cc1Cl (centres unmarked) [Example 26, {4-[3-(3-Chloro-4-ethoxy-phenyl)-ureido]-butyl}-{2-[(3,5-diamino-6-chloro-pyrazine-2-carbonyl)-amino]-ethyl}-[3-(4-methoxy-phenyl)-propyl]-methyl-ammonium bromide]",12
4,"COc1ccc(CCC[N+](C)(C)CCNC(=O)c2nc(Cl)c(N)nc2N)cc1 [Example 27, {2-[(3,5-diamino-6-chloro-pyrazine-2-carbonyl)-amino]-ethyl}-[3-(4-methoxy-phenyl)-propyl]-dimethyl-ammonium bromide]",220
5,"C[N+](C)(CCCc1ccc(OCCCc2ccc(OC[C@@H](O)CO)cc2)cc1)CCNC(=O)c1nc(Cl)c(N)nc1N [Example 29, {2-[(3,5-Diamino-6-chloro-pyrazine-2-carbonyl)-amino]-ethyl}-[3-(4-{3-[4-((S)-2,3-dihydroxy-propoxy)-phenyl]-propoxy}-phenyl)-propyl]-dimethyl-ammonium bromide]",25
6,"C[N+](C)(CCNC(=O)CCc1ccccc1)CCNC(=O)c1nc(Cl)c(N)nc1N [Example 30, {2-[(3,5-Diamino-6-chloro-pyrazine-2-carbonyl)-amino]-ethyl}-dimethyl-2-[(3-phenyl-propionylamino)-ethyl]-ammonium hexafluorophosphate]",140
7,"C[N+](C)(CCNC(=O)CCc1ccc(Cl)cc1)CCNC(=O)c1nc(Cl)c(N)nc1N [Example 33, {2-[3-(4-Chloro-phenyl)-propionylamino]-ethyl}-{2-[(3,5-diamino-6-chloro-pyrazine-2-carbonyl)-amino]-ethyl}-dimethyl-ammonium hexafluorophosphate]",150
8,"COc1ccc2c(c1)CCCC2CC(=O)NCC[N+](C)(C)CCNC(=O)c1nc(Cl)c(N)nc1N (centres unmarked) [Example 35, {2-[(3,5-Diamino-6-chloro-pyrazine-2-carbonyl)-amino]ethyl}-{2-[2-(6-methoxy-1,2,3,4-tetrahydro-naphthalen-1-yl)-acetylamino]-ethyl}-dimethyl-ammonium hexafluorophosphate]",410
9,"C[N+](C)(CCNC(=O)CCc1ccc(F)cc1)CCNC(=O)c1nc(Cl)c(N)nc1N [Example 38, {2-[(3,5-Diamino-6-chloro-pyrazine-2-carbonyl)-amino]-ethyl}-{2-[3-(4-fluoro-phenyl)-propionylamino]-ethyl}-dimethyl-ammonium hexafluorophosphate]",810
10,"C[N+](C)(CCCNC(=O)Cc1ccc(OCc2ccccc2)cc1)CCNC(=O)c1nc(Cl)c(N)nc1N [Example 50, {3-[2-(4-Benzyloxy-phenyl)-acetylamino]-propyl}-{2-[(3,5-diamino-6-chloro-pyrazine-2-carbonyl)-amino]-ethyl}-dimethyl-ammonium bromide]",240

# Second part, the molecule after the results:
row,IC50 [nM],SMILES
1,420,"C[N+](C)(CCCNC(=O)Cc1ccc(Cl)cc1)CCNC(=O)c1nc(Cl)c(N)nc1N [Example 51, {3-[2-(4-Chloro-phenyl)-acetylamino]-propyl}-{2-[(3,5-diamino-6-chloro-pyrazine-2-carbonyl)-amino]-ethyl}-dimethyl-ammonium hexafluorophosphate]"
2,600,"C[N+](C)(CCCNC(=O)Cc1ccccc1)CCNC(=O)c1nc(Cl)c(N)nc1N [Example 53, {2-[(3,5-Diamino-6-chloro-pyrazine-2-carbonyl)-amino]-ethyl}-dimethyl-(3-phenylacetylamino-propyl)-ammonium hexafluorophosphate]"
3,43,"C[N+](C)(CCCCNC(=O)Cc1ccc(OCc2ccccc2)cc1)CCNC(=O)c1nc(Cl)c(N)nc1N [Example 63, {4-[2-(4-Benzyloxy-phenyl)-acetylamino]-butyl}-{2-[(3,5-diamino-6-chloro-pyrazine-2-carbonyl)-amino]-ethyl}-dimethyl-ammonium bromide]"
4,150,"C[N+](C)(CCCCNC(=O)CCc1ccc(Cl)cc1)CCNC(=O)c1nc(Cl)c(N)nc1N [Example 65, {4-[3-(4-Chloro-phenyl)-propionylamino]-butyl}-{2-[(3,5-diamino-6-chloro-pyrazine-2-carbonyl)-amino]-ethyl}-dimethyl-ammonium hexafluorophosphate]"
